Paper PMC7617869, “Molecular glues that inhibit deubiquitylase activity and inflammatory signaling” (Nature Structural & Molecular Biology, 2025)
Where “and” joins values, the source holds several entries; their conditions need not be identical. Identical values can stand only once.

Assays:
[1] = target: T1, BRCC36–Abraxas 2 complex (Homo sapiens, UniProt P46736+Q15018); test: BRCC36–Abraxas 2 IQF DUB activity assay; assay type: biochemical; settings: for Normalised V0: Fig. 1g, HsBRCC36-Abraxas2
T1 construct: made in house; host or cells: Spodoptera frugiperda (Sf9) insect cells, MultiBac
Description: (§1) IQF assays were performed in DUB reaction buffer containing 50 mM HEPES–NaOH pH 7.0, 100 mM NaCl, 0.1 mg ml^−1 BSA, 1 mM DTT and 0.03% v/v Brij-35. […] The final concentration of BRISC WT, all BRISC mutants, HsBRISCΔLoop, MmBRISC and DrBRISCΔNΔC was 1 nM. Other enzymes were tested at the following concentrations: 5 nM ARISC (FL), 10 nM CfBRISCΔNΔC, 250 nM AMSH* (ref. [43]), 500 nM USP2 and 1 μM trypsin (Sigma, 9002-07-7). For Michaelis–Menten experiments, 1 nM BRISC with 0–1 μM IQF K63-linked diubiquitin substrate was used. Michaelis–Menten analyses and Lineweaver–Burk plots were calculated using GraphPad Prism (version 9.0).
(§2) To assess enzymatic activity, BRISC complexes were diluted to concentrations between 1 nM and 50 nM. […] Then, 20-μl enzyme reactions were carried out in 384-well black flat-bottom low-flange plates (Corning, 35373). DUB activity was measured using IQF K63-linked diubiquitin (LifeSensors, DU6303) at 50 nM. Cleaved diubiquitin was monitored by measuring fluorescence intensity (excitation, 544 nm; emission, 575 nm; dichroic mirror, 560 nm). Fluorescence intensity was measured every minute for 30 min at 30 °C. Fluorescence intensity units were plotted against time to generate a linear reaction progress curve, where the initial velocity (V0) corresponds to the gradient of the curve (typically achieved within 15 min). IC50 values were calculated using the GraphPad Prism (version 9.0) built-in dose–response equation for inhibitor concentration versus response (variable slope).

[2] = target: T2, MmBRISC (Mus musculus, UniProt P46737+Q3TCJ1+Q8K3W0); test: MmBRISC IQF DUB activity assay; assay type: biochemical; settings: read-out: Normalised V0
T2 construct: made in house; host or cells: Trichoplusia ni cells (Bac-to-Bac, pFastBac-HTB)
T2 sequence (P46737 whole entry): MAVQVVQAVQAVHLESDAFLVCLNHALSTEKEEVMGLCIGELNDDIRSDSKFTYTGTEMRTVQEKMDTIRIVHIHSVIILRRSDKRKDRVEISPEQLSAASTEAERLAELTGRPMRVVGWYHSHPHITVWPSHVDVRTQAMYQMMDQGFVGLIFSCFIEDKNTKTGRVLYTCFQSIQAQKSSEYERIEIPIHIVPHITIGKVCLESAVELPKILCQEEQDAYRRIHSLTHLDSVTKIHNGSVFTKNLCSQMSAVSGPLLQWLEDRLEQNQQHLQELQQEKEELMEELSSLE
T2 sequence (Q3TCJ1 whole entry): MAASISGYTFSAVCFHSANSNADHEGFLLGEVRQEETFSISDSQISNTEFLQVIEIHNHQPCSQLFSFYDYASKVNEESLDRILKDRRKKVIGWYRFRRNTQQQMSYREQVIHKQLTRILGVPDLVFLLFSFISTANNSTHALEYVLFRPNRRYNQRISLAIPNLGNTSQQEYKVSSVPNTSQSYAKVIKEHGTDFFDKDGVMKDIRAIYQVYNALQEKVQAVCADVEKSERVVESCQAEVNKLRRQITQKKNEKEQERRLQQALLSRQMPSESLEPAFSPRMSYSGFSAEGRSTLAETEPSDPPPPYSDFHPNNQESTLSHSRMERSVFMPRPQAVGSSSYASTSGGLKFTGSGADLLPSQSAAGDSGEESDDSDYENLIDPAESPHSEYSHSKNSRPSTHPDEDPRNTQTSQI
T2 sequence (Q8K3W0 whole entry): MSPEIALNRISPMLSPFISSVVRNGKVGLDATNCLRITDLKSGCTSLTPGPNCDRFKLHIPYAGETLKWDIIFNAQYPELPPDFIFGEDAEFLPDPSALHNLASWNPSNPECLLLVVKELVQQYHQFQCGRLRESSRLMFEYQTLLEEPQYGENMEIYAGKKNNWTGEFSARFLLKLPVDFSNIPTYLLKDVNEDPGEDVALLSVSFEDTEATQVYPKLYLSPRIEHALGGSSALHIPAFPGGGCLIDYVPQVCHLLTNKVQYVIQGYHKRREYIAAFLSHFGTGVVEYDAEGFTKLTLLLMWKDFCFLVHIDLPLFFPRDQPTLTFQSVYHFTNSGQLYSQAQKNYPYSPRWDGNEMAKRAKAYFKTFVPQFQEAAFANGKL
T2 sequence (Q3UI43 whole entry partner): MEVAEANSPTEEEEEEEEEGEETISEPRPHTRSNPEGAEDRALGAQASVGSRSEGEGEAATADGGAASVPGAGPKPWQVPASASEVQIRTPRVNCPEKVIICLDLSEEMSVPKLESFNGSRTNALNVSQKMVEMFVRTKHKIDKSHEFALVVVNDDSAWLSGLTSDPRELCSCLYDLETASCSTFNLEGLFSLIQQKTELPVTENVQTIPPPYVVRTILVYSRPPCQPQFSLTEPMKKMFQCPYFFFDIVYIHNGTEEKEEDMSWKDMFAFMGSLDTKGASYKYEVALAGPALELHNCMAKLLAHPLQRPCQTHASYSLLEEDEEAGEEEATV
Description: as §1, §2

[3] = target: BRISC BRCC36 W130A (Homo sapiens, UniProt P46736+Q15018+Q9NXR7, W130A); test: BRISC mutant IQF assay: BRCC36 W130A; assay type: biochemical
Description: as §1, §2

[4] = target: BRISC BRCC36 L169A (Homo sapiens, UniProt P46736+Q15018+Q9NXR7, L169A); test: BRISC mutant IQF assay: BRCC36 L169A; assay type: biochemical
Description: as §1, §2

[5] = target: BRISC Abraxas2 T140A (Homo sapiens, UniProt P46736+Q15018+Q9NXR7, T140A); test: BRISC mutant IQF assay: Abraxas2 T140A; assay type: biochemical
Description: as §1, §2

[6] = target: BRISC BRCC45 R137A (Homo sapiens, UniProt P46736+Q15018+Q9NXR7, R137A); test: BRISC mutant IQF assay: BRCC45 R137A; assay type: biochemical
Description: as §1, §2

[7] = target: BRISC BRCC45 C245A (Homo sapiens, UniProt P46736+Q15018+Q9NXR7, C245A); test: BRISC mutant IQF assay: BRCC45 C245A; assay type: biochemical
Description: as §1, §2

[8] = target: T3, BRISC (FL) (Homo sapiens, UniProt P46736+Q15018+Q9NXR7); test: In-gel deubiquitylation assay, TAMRA-labeled K63-tetraubiquitin, BRISC; assay type: biochemical; settings: 10 μM or 100 μM inhibitor
T3 construct: full-length BRISC (FL), ARISC (FL); made in house; host or cells: Spodoptera frugiperda Sf9 insect cells (MultiBac)
Description: The inhibitor capzimin (Merck) was diluted in 1 mM DTT and incubated for 30 min at room temperature to reduce disulfide bonds required for inhibitor activity. […] DUBs were incubated with 750 nM TAMRA-labeled K63-tetraubiquitin (LifeSensors, SI6304T) for 10 min at 30 °C. Reactions were quenched by adding 2.5 μl of 4× SDS–PAGE loading dye (240 mM Tris-HCl pH 6.8, 40% v/v glycerol, 8% w/v SDS, 0.04% w/v bromophenol blue and 5% v/v β-mercaptoethanol). The samples were resolved on 4–12% NuPAGE Bis–Tris gels (Thermo Fisher Scientific). Gels were scanned using an iBright FL 1500 (Thermo Fisher Scientific) (excitation, 515–545 nm; emission, 568–617 nm; exposure, 500 ms).

[9] = test system: ISG expression in MCF10A Cas9 cells expressing BRCC45 R137A; test: MCF10A BRCC45 R137A ISG expression (RT–qPCR); assay type: cell-based, human; settings: hIFNα2 75 ng/ml, 2.5 μM, 4 h
[10] = FX-171-C 0.0035 μM, read-out: Normalised V0
[11] = FX-171-C 0.035 μM, read-out: Normalised V0
[12] = FX-171-C 12.5 μM, read-out: Normalised V0
[13] = FX-171-C 50 μM, read-out: Normalised V0
[14] = FX-171-C 100 μM, read-out: Normalised V0
[15] = FX-171-C 25 μM, read-out: Normalised V0

## O=C(NC1C2CNCC21)c1nn(C(=O)c2c(Cl)cccc2Cl)cc1NC(=O)c1c(Cl)cccc1Cl (stereo not drawn) [FX-171-C]
[1]; FX-171-C 0.02 μM
  Normalised V0: 1.3 and 1.008 and 1.02
[1]; FX-171-C 0.0399999 μM
  Normalised V0: 1.022 and 1.101 and 0.829
[1]; FX-171-C 0.0599997 μM
  Normalised V0: 1.02 and 1.119 and 0.8587
[1]; FX-171-C 0.0799994 μM
  Normalised V0: 1.3 and 1.0735 and 0.9036
[1]; FX-171-C 0.119998 μM
  Normalised V0: 1.089 and 1.054 and 0.9805
[1]; FX-171-C 0.199996 μM
  Normalised V0: 1.086 and 0.9378 and 0.7276
[1]; FX-171-C 0.499975 μM
  Normalised V0: 1.276 and 0.8855 and 0.9134
[1]; FX-171-C 0.799936 μM
  Normalised V0: 1.016 and 0.9326 and 0.9281
[1]; FX-171-C 1.25984 μM
  Normalised V0: 1.192 and 1.006 and 0.8037
[1]; FX-171-C 1.9996 μM
  Normalised V0: 1.057 and 0.8883 and 0.8901
[1]; FX-171-C 3.159 μM
  Normalised V0: 1.054 and 1.032 and 0.8522
[1]; FX-171-C 5.19739 μM
  Normalised V0: 1.053 and 0.9454 and 1.03
[1]; FX-171-C 7.99364 μM
  Normalised V0: 1.141 and 1 and 1.012
[1]; FX-171-C 12.7839 μM
  Normalised V0: 1.078 and 0.9313 and 0.7823
[1]; FX-171-C 19.96 μM
  Normalised V0: 1.034 and 1.063 and 0.8934
[1]; FX-171-C 31.4999 μM
  Normalised V0: 1.1494 and 0.9768 and 0.8462
[1]; FX-171-C 50.147 μM
  Normalised V0: 1.218 and 1.114 and 0.9054
[1]; FX-171-C 79.7601 μM
  Normalised V0: 1.112 and 1.275 and 1.169
[1]; FX-171-C 125.99 μM
  Normalised V0: 1.275 and 1.029 and 0.9009
[1]; FX-171-C 199.922 μM
  Normalised V0: 1.127 and 0.8107 and 0.6392
[1]; minimally active complex
  inhibition of BRCC36–Abraxas 2 complex: did not inhibit
[2]; FX-171-C 0.02 μM
  remaining activity at 0.02 µM: 101%
[2]; FX-171-C 0.0399999 μM
  remaining activity at 0.0399999 µM: 89.4%
[2]; FX-171-C 0.0599997 μM
  remaining activity at 0.0599997 µM: 106%
[2]; FX-171-C 0.0799994 μM
  remaining activity at 0.0799994 µM: 102%
[2]; FX-171-C 0.119998 μM
  remaining activity at 0.119998 µM: 107%
[2]; FX-171-C 0.199996 μM
  remaining activity at 0.199996 µM: 106%
[2]; FX-171-C 0.499975 μM
  remaining activity at 0.499975 µM: 94.9%
[2]; FX-171-C 0.799937 μM
  remaining activity at 0.799937 µM: 98%
[2]; FX-171-C 1.25984 μM
  remaining activity at 1.25984 µM: 89.8%
[2]; FX-171-C 1.9996 μM
  remaining activity at 1.9996 µM: 97.6%
[2]; FX-171-C 3.159 μM
  remaining activity at 3.159 µM: 92.5%
[2]; FX-171-C 5.19739 μM
  remaining activity at 5.19739 µM: 87.1%
[2]; FX-171-C 7.99364 μM
  remaining activity at 7.99364 µM: 68.2%
[2]; FX-171-C 12.7839 μM
  remaining activity at 12.7839 µM: 57.7%
[2]; FX-171-C 19.96 μM
  remaining activity at 19.96 µM: 43.1%
[2]; FX-171-C 31.4999 μM
  remaining activity at 31.4999 µM: 34%
[2]; FX-171-C 50.147 μM
  remaining activity at 50.147 µM: 24.4%
[2]; FX-171-C 79.7601 μM
  remaining activity at 79.7601 µM: 22.6%
[2]; FX-171-C 125.99 μM
  remaining activity at 125.99 µM: 12%
[3]
  IC50: 23 µM
[3]; [10]
  remaining activity at 0.0035 µM: 95.2%
[3]; [11]
  remaining activity at 0.035 µM: 96.5%
[3]; [12]
  remaining activity at 12.5 µM: 67.5%
[3]; [13]
  remaining activity at 50 µM: 40.4%
[3]; [14]
  remaining activity at 100 µM: 21%
[4]
  IC50: 33 µM
  reduction of inhibition over wild-type complex: > 100 fold
[4]; [11]
  remaining activity at 0.035 µM: 94.7%
[4]; FX-171-C 3.1 μM, read-out: Normalised V0
  remaining activity at 3.1 µM: 98.4%
[4]; [13]
  remaining activity at 50 µM: 40.6%
[4]; [14]
  remaining activity at 100 µM: 22.1%
[4]; FX-171-C 200 μM, read-out: Normalised V0
  remaining activity at 200 µM: 10.5%
[5]; Abraxas 2 T140A
  IC50: 5 µM
  inhibitor sensitivity vs BRISC WT: IC50 tenfold higher than BRISC WT
[5]; Abraxas2 T140A, FX-171-C 0.0035 μM, read-out: Normalised V0
  remaining activity at 0.0035 µM: 89.1%
[5]; Abraxas2 T140A, FX-171-C 0.35 μM, read-out: Normalised V0
  remaining activity at 0.35 µM: 99.5%
[5]; Abraxas2 T140A, FX-171-C 3.1 μM, read-out: Normalised V0
  remaining activity at 3.1 µM: 53.4%
[6]
  IC50: > 100 µM
  inhibitor sensitivity vs BRISC WT: reduced sensitivity to inhibition
[6]; [12]
  remaining activity at 12.5 µM: 87.5%
[6]; [15]
  remaining activity at 25 µM: 80.1%
[7]
  IC50: 31 µM
  inhibitor sensitivity vs BRISC WT: reduced sensitivity to inhibition
[7]; [10]
  remaining activity at 0.0035 µM: 97.7%
[7]; [11]
  remaining activity at 0.035 µM: 74.6%
[7]; FX-171-C 0.35 μM, read-out: Normalised V0
  remaining activity at 0.35 µM: 94.7%
[7]; FX-171-C 6.25 μM, read-out: Normalised V0
  remaining activity at 6.25 µM: 66.4%
[7]; [12]
  remaining activity at 12.5 µM: 43.3%
[7]; [15]
  remaining activity at 25 µM: 46.6%
[8]
  inhibition of BRISC cleavage of K63-linked tetraubiquitin: inhibit
[9]
  ISG expression (ISG15, IFIT1, IFIT2, IFITM1, CXCL10): a reduction in ISG expression was not observed
